Results reported in patent US7425556B2 (priority 2005, dated 2008).
pEC50, pKi: −log10 of the molar value.

Columns and labels:
[1] = target: T1, GABAA2 receptors (α2, β3, γ2 receptor subunits) (Homo sapiens, UniProt P18507+P47869); assay: biochemical; conditions: [3H]-Flunitrazepam ~2 nM, α2β3γ2 Sf9 membranes, 1 hr at 4° C.; read-out: GABAA2 Binding Ki
T1 construct: host or cells: Sf9 cells (membranes)

[2] = target: T2, GABAA1 (human α1β2γ2 GABAA receptor) (Homo sapiens, UniProt P14867+P18507); assay: Two-electrode voltage-clamp in Xenopus oocytes, potentiation of GABA EC10 current, GABAA1; type: cell-based; conditions: percentage potentiation of GABA EC10 current divided by that of diazepam
T2 construct: expressed in transfected cells; host or cells: Xenopus laevis oocytes injected with capped cRNA
T2 sequence (P14867 28-456): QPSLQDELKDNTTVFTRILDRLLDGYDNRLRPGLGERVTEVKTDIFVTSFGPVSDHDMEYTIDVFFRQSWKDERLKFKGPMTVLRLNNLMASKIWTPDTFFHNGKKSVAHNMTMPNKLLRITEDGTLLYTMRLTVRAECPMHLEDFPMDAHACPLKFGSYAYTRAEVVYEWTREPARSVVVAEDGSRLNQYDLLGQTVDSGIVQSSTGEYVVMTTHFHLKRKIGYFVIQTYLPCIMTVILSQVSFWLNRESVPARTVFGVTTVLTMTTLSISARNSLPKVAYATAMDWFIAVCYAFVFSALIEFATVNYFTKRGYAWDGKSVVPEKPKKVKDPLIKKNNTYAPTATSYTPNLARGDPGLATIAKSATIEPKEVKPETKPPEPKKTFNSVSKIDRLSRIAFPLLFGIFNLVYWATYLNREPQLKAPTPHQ
T2 sequence (P47870 25-512 partner limits assumed): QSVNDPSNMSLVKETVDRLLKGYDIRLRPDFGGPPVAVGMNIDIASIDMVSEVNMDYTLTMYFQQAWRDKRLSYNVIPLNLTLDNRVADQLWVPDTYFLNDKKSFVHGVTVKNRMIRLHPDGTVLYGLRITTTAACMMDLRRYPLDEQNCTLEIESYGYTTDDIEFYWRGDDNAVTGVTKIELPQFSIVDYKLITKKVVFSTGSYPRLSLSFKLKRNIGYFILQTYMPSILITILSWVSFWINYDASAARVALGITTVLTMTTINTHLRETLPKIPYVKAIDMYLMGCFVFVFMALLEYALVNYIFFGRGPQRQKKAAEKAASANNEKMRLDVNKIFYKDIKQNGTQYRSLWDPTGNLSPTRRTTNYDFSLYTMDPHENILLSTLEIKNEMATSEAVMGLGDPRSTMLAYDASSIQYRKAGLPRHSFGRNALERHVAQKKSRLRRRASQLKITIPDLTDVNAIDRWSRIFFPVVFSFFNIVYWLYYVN
T2 sequence (P18507 40-475): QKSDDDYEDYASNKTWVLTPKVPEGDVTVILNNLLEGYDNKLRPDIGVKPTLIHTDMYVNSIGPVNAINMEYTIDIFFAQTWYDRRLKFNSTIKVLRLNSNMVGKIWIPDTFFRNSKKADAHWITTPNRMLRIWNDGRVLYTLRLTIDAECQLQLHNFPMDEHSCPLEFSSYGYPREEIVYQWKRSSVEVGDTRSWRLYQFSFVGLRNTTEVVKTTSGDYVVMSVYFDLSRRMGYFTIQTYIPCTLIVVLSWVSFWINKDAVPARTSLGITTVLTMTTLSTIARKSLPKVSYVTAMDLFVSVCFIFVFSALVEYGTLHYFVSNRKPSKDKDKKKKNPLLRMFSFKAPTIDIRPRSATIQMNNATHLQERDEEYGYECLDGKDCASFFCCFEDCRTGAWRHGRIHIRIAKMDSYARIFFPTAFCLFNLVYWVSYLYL

[3] = target: T3, GABAA2 (human α2β3γ2 GABAA receptor) (Homo sapiens, UniProt P18507+P47869); assay: Two-electrode voltage-clamp in Xenopus oocytes, potentiation of GABA EC10 current, GABAA2; type: cell-based; conditions: percentage potentiation of GABA EC10 current divided by that of diazepam
T3 construct: expressed in transfected cells; host or cells: Xenopus laevis oocytes injected with capped cRNA
T3 sequence (P47869 29-451): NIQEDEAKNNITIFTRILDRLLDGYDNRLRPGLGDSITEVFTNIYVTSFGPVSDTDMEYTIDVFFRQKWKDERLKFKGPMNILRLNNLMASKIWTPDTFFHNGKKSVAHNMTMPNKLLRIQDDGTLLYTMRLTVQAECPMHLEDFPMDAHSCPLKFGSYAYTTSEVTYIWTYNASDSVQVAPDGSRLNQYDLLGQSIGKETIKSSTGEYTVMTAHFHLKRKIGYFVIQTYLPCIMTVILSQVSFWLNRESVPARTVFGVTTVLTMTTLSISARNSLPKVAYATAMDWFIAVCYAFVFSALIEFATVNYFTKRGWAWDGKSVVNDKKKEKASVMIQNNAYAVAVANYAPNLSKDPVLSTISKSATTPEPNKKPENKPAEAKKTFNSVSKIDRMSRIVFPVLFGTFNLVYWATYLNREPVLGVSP
T3 sequence (P28472 26-473 partner): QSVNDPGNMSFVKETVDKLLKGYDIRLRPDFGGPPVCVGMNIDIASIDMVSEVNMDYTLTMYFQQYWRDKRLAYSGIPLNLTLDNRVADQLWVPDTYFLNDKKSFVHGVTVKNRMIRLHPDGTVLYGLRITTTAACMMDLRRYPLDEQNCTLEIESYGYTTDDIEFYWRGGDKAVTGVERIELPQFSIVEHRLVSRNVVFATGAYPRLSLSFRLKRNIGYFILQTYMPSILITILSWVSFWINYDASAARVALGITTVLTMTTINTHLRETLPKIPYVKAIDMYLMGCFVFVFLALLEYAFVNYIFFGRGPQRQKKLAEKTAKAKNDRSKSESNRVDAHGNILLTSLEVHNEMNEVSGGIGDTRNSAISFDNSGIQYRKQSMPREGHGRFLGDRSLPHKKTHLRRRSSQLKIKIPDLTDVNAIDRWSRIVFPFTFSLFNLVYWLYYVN
T3 sequence (P18507 40-475): as the sequence (P18507 40-475) above

[4] = target: human Melatonin receptor 1 (MT1) (Homo sapiens, UniProt P48039); assay: biochemical; conditions: for Emax: read-out: MT1 Receptor GTPgS Emax; for pEC50: hMT1/HEK293F membranes, agonist potency, read-out: MT1 Receptor GTPgS EC50; for MT1 Receptor GTPgS Emax: efficacy, 100% effect = 3 nM 2-Iodomelatonin, 0% = vehicle
Chain of human Melatonin receptor 1 (MT1) (P48039 whole entry): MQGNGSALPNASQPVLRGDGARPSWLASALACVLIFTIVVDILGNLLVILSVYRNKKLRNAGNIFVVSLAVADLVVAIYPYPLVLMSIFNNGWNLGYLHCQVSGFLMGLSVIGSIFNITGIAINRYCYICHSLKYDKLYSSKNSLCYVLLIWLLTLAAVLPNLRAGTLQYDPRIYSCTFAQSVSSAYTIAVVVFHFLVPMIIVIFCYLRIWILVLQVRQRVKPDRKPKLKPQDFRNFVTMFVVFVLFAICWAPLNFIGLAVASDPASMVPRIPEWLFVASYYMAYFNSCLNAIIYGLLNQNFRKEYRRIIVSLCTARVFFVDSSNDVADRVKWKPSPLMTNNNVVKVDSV
Experimental: Method II MT1 GTPγ^35S-SPA Assay Test Validation Standards
Test compounds were synthesized in house. […] 2 μl of diluted compounds were transferred to Optic-assay-plates.
(Freshly add protease inhibitor cocktail tables from Roche). […] The protein concentration of the membrane was determined. The membranes were aliquoted and stored at −80° C.
• MAX response (100% effect) was determined as the effect of 3 nM of 2-lodomelatonin. • MIN response (0% effect) was determined as the effect of vehicle control. Description of Experimental Procedure
The final concentration of GTPγ^35S was 200 pM.

MT1 Receptor = MT1 Receptor (Homo sapiens, UniProt P48039); assay: biochemical; type: binding; conditions: for pKi: read-out: MT1 Receptor Binding Ki
Chain of MT1 Receptor (P48039 whole entry): as above

T1 sequence (P47869 29-451): as the sequence (P47869 29-451) above
T1 sequence (P28472 26-473 partner): as the sequence (P28472 26-473 partner) above
T1 sequence (P18507 40-475): as the sequence (P18507 40-475) above

Compound	pKi [1]	Relative Potentiation for GABAA1 [2]	Relative Potentiation for GABAA2 [3]	Emax [4] [%]	also measured
CCCNC(=O)c1nnc2c(-c3ccc(C)nc3F)cccc2c1N	8.78	0.053	0.27		
CCCNC(=O)c1nnc2c(-c3cnccc3C)cccc2c1N	8.77	0.083	0.11		
CCCNC(=O)c1nnc2c(-c3ccc(F)cc3F)cccc2c1N	8.76	−0.088	0.12		
CCCNC(=O)c1nnc2c(-c3cc(OC)ccc3F)cccc2c1N	8.76	0.26	0.32		
CCCNC(=O)c1nnc2c(-c3cccc(Cl)c3Cl)cccc2c1N	8.74	0.067	0.053		
CCCCNC(=O)c1nnc2c(-c3cnccc3OC)cccc2c1N	8.74	0.2	0.52		
CCCNC(=O)c1nnc2c(-c3cc(C)ccc3OC)cccc2c1N				61	
CCCNC(=O)c1nnc2c(-c3cnccc3OC)cccc2c1N				64	
CCCNC(=O)c1nnc2c(-c3cnc(OC)nc3OC)cccc2c1N				70	
CCCNC(=O)c1nnc2c(-c3cc(OC)ccc3OC)c(F)ccc2c1N				64	pKi (MT1 Receptor): 7.51; pEC50 [4]: 7.63
CCCNC(=O)c1nnc2c(-c3cc(OC)ccc3OC)cccc2c1N [drawing 417]					MT1 Receptor Binding % Inhibition at 1 μM (MT1 Receptor; at 1 μM): 86%; pKi (MT1 Receptor): 7.22; MT1 Receptor GTPgS Emax [4]: 100; pEC50 [4]: 7.43
CCCNC(=O)c1nnc2c(-c3cc(OC)ccc3OC)cccc2c1N [drawing 421]					inhibition at 1 µM (MT1 Receptor; at 1 μM, read-out: MT1 Receptor Binding % Inhibition at 1 μM): 91%; pKi (MT1 Receptor): 7.44; MT1 Receptor GTPgS Emax [4]: 61; pEC50 [4]: 7.57
